In patent publication US20250154123A1, “COOLING COMPOUNDS AND COMPOSITIONS” (V. MANE FILS, priority 2022, published 2025):

Assays:
hTRPM8 = target: T1, hTRPM8 (Homo sapiens, UniProt Q7Z2W7); assay: Secondary in vitro screening on hTRPM8 at 5 μM versus WS-3; format: cell-based; settings: WS3 as reference compound
T1 construct: expressed in transfected cells; host or cells: CHO-KJ cells [sic]
Procedure: (§1) The compounds were evaluated in vitro on CHO-KJ cells expressing the gene encoding the hTRPM8 ion channel (Table 1). Channel activation is determined by fluorometric measurement of […] calcium using FLUO-8. The activity of the compounds was measured relative to icilin (known hTRPM8 agonist).
The compounds 1 to 40 were tested on hTRPM8 at 5 μM using WS3 as the reference compound (Table 2).

hTRPM8 ion channel = target: T2, hTRPM8 ion channel (Homo sapiens, UniProt Q7Z2W7); assay: Primary in vitro screening on hTRPM8 (CHO-KJ cells, FLUO-8 calcium fluorometry, relative to icilin); format: cell-based; settings: CHO-KJ cells expressing hTRPM8
T2 construct: expressed in transfected cells; host or cells: CHO-KJ cells [sic]
T2 sequence (Q7Z2W7 whole entry): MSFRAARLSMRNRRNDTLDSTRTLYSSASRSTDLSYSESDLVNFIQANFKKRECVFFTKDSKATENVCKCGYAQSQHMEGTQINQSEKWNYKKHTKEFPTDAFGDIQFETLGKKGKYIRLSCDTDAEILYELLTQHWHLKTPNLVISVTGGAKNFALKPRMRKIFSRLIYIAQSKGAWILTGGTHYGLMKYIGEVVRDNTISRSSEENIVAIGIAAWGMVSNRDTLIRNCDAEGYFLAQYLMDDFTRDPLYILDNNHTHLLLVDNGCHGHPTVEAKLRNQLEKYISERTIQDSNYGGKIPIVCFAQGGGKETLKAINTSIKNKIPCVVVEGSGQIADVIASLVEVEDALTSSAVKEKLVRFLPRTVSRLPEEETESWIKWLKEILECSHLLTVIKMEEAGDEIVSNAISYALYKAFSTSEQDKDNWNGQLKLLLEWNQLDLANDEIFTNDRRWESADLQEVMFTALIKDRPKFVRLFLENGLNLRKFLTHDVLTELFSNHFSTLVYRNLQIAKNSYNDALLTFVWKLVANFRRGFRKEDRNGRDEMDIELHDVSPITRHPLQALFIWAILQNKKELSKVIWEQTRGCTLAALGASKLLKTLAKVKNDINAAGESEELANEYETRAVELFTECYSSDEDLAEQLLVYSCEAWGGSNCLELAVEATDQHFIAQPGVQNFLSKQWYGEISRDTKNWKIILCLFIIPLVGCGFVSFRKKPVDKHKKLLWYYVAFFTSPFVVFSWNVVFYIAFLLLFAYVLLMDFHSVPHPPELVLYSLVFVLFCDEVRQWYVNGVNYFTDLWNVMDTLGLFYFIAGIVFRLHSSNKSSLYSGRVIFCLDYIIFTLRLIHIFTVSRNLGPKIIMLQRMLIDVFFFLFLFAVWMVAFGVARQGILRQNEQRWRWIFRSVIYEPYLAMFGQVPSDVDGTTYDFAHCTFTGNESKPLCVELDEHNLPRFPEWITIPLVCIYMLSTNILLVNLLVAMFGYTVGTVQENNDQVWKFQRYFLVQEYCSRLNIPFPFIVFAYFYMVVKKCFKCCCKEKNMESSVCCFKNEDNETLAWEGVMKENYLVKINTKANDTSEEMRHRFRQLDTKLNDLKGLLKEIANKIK
Procedure: as §1

T1 sequence (Q7Z2W7 whole entry): as above

activation at 5 µM (hTRPM8) [%]	SMILES	also measured
8	CC1(C)CC(C)(C)CC(CO)(CO)C1 [Compound 40, (3,3,5,5-tetramethylcyclohexane-1,1-diyl)dimethanol]	–
3	CC1CC(C)(C)CC2(COC(C)OC2)C1 (stereo not drawn) [Compound 11, 3,8,8,10-tetramethyl-2,4-dioxaspiro[5.5]undecane]	–
71	CC(C)C1CCC(C)(C)CC1(CO)CO (single isomer, unassigned) [Compound 30, (2-isopropyl-5,5-dimethylcyclohexane-1,1-diyl)dimethanol]	–
3	CC1OCC2(CCCC(C)(C)C2)CO1 (stereo not drawn) [Compound 26, 3,8,8-trimethyl-2,4-dioxaspiro[5.5]undecane]	–
-2	CC(C)[C@@H]1CC[C@@H](C)CC1(COC(=O)CCC(=O)O)COC(=O)CCC(=O)O [Compound 21, 4,4′-((((2S,5R)-2-isopropyl-5-methylcyclohexane-1,1-diyl)bis (methylene))bis(oxy))bis(4-oxobutanoic acid)]	–
3	CC(C)[C@@H]1CC[C@@H](C)CC12COC(c1cccs1)OC2 (stereo partly drawn) [Compound 24, (7S,1OR)-7-isopropyl-10-methyl-3-(thiophen-2-yl)-2,4-dioxaspiro[5.5]undecane]	–
1	CC1OCC2(CO1)CC(C)(C)CCC2C(C)C (stereo not drawn) [Compound 33, 7-isopropyl-3,10,10-trimethyl-2,4-dioxaspiro[5.5]undecane]	–
–	CC(C)[C@@H]1CC[C@@H](C)C[C@H]1OC(=O)CCC(=O)O [Physcool ™, reference compound]	% activation vs iciline (hTRPM8 ion channel): -2%
13	CC(C)[C@@H]1CC[C@@H](C)CC12COC(C)(c1ccccc1)OC2 (stereo partly drawn) [Compound 22, (7S,1OR)-7-isopropyl-3,10-dimethyl-3-phenyl-2,4-dioxaspiro[5.5]undecane]	–
40	CCC(C)C1CCCCC1(CO)CO (stereo not drawn) [Compound 27, (2-(sec-butyl)cyclohexane-1,1-diyl)dimethanol]	–
1	CC1CC(C)(C)CC2(COC(C)(C)OC2)C1 (stereo not drawn) [Compound 12, 3,3,8,8,10-pentamethyl-2,4-dioxaspiro[5.5]undecane]	–
–	CC(C)[C@@H]1CC[C@@H](C)C[C@H]1O [l-menthol, reference compound]	% activation vs iciline (hTRPM8 ion channel; concentration 114 μM): 78%
4	CC(=O)OCC1(CO)C[C@H](C)CC[C@H]1C(C)C (stereo partly drawn) [Compound 32, ((2S,5R)-1-(hydroxymethyl)-2-isopropyl-5-methylcyclohexyl)methyl acetate]	–
5	CCOC(=O)C1OCC2(CO1)C[C@H](C)CC[C@H]2C(C)C (stereo partly drawn) [Compound 28, Ethyl (7S,1OR)-7-isopropyl-10-methyl-2,4-dioxaspiro[5.5]undecane-3-carboxylate]	–
8	CC(C)[C@@H]1CC[C@@H](C)CC1(CO)COCc1ccccc1 (stereo partly drawn) [Compound 38, ((2S,5R)-1-((benzyloxy)methyl)-2-isopropyl-5-methylcyclohexyl) methanol]	–
14	C=C(C)[C@@H]1CC[C@@H](C)C[C@H]1C(CO)CO [Compound 35, 2-((1R,2R,5R)-5-methyl-2-(prop-1-en-2-yl)cyclohexyl)propane-1,3-diol]	–
-1	CCC(C)C1OCC2(CO1)C[C@H](C)CC[C@H]2C(C)C (stereo partly drawn) [Compound 16, (7S,1OR)-3-(sec-butyl)-7-isopropyl-10-methyl-2,4-dioxaspiro[5.5]undecane]	–
3	CSCCC1OCC2(CO1)C[C@H](C)CC[C@H]2C(C)C (stereo partly drawn) [Compound 25, (7S,1OR)-7-isopropyl-10-methyl-3-(2-(methylthio)ethyl)-2,4-dioxaspiro [5.5]undecane]	–

activation at 5 µM (hTRPM8) [%]	SMILES	also measured
-1	CCCC1OCC2(CO1)C[C@H](C)CC[C@H]2C(C)C (stereo partly drawn) [Compound 14, (7S,1OR)-7-isopropyl-10-methyl-3-propyl-2,4-dioxaspiro[5.5]undecane]	–
10	CC1CC(C)(C)CC(CO)(CO)C1 (stereo not drawn) [Compound 10, (3,3,5-trimethylcyclohexane-1,1-diyl)dimethanol]	–
21	CC(C)[C@@H]1CC[C@@H](C)CC1(C(C)O)C(C)O (stereo partly drawn) [Compound 34, 1,1′-((2S,5R)-2-isopropyl-5-methylcyclohexane-1,1-diyl)bis(ethan-1-ol)]	–
6	CC(C)[C@@H]1CC[C@@H](C)CC1(C=O)C=O [Compound 8, (2S,5R)-2-isopropyl-5-methylcyclohexane-1,1-dicarbaldehyde]	–
4	CC1(C)CCCC(CO)(CO)C1 [Compound 20, (3,3-dimethylcyclohexane-1,1-diyl)dimethanol]	–
6	C=C(C)[C@@H]1CC[C@@H](C)C[C@H]1C1COC(C)OC1 (stereo partly drawn) [Compound 36, 2-methyl-5-((1R,2R,5R)-5-methyl-2-(prop-1-en-2-yl)cyclohexyl)-1,3-dioxane]	–
–	CC1CCC(C(C)C)C(OC(=O)C(C)O)C1 (stereo not drawn) [menthyl lactate, reference compound]	% activation vs iciline (hTRPM8 ion channel; concentration 116 μM): 53%
16	CC(C)[C@@H]1CC[C@@H](C)CC1(CO)C(=O)O (stereo partly drawn) [Compound 39, (2S,5R)-1-(hydroxymethyl)-2-isopropyl-5-methylcyclohexane-1-carboxylic acid]	–
-2	CCC(C)C1CCCCC12COC(C)OC2 (stereo not drawn) [Compound 31, 7-(sec-butyl)-3-methyl-2,4-dioxaspiro[5.5]undecane]	–
26	CC(C)[C@@H]1CC[C@@H](C)CC1(CCO)CCO [Compound 29, 2,2′-((2S,5R)-2-isopropyl-5-methylcyclohexane-1,1-diyl)bis(ethan-1-ol)]	–
3	CC(C)[C@@H]1CC[C@@H](C)CC12COC(c1ccccc1)OC2 (stereo partly drawn) [Compound 18, (7S,1OR)-7-isopropyl-10-methyl-3-phenyl-2,4-dioxaspiro[5.5]undecane]	–
-6	CC(C)C1OCC2(CO1)C[C@H](C)CC[C@H]2C(C)C (stereo partly drawn) [Compound 15, (7S,1OR)-3,7-diisopropyl-10-methyl-2,4-dioxaspiro[5.5]undecane]	–
4	CC(C)[C@@H]1CC[C@@H](C)CC12COC(c1ccccn1)OC2 (stereo partly drawn) [Compound 23, 2-((7S,10R)-7-isopropyl-10-methyl-2,4-dioxaspiro[5.5]undecan-3-yl) pyridine]	–
1	COCC1(COC)C[C@H](C)CC[C@H]1C(C)C [Compound 17, (2S,5R)-2-isopropyl-1,1-bis(methoxymethyl)-5-methylcyclohexane]	–
–	C=C(C)[C@@H]1CC[C@@H](C)C[C@H]1O [l-isopulegol, reference compound]	% activation vs iciline (hTRPM8 ion channel; concentration 123 μM): 51%
0	CC(=O)OCC1(COC(C)=O)C[C@H](C)CC[C@H]1C(C)C [Compound 9, ((2S,5R)-2-isopropyl-5-methylcyclohexane-1,1-diyl)bis(methylene) diacetate]	–
0	CC(C)[C@@H]1CC[C@@H](C)CC12COC1(C[C@H](C)CC[C@H]1C(C)C)OC2 (stereo partly drawn) [Compound 7, (1S,4R,10S,13R)-1,10-diisopropyl-4,13-dimethyl-7,16-dioxadispiro [5.2.5^90.2^6]hexadecane]	–
1	CCC1(C)OCC2(CO1)C[C@H](C)CC[C@H]2C(C)C (stereo partly drawn) [Compound 13, (7S,1OR)-3-ethyl-7-isopropyl-3,10-dimethyl-2,4-dioxaspiro[5.5]undecane]	–
